{"source": "paper PMC6576746", "about": "“Rational discovery of dual-indication multi-target PDE/Kinase inhibitor for precision anti-cancer therapy using structural systems pharmacology” (PLoS Computational Biology, 2019)", "experiment_in_all_cases": "cells", "parameters_in_all_cases": "species or system panel of human cancer cell lines; Eurofins OncoPanel proliferation; nuclei count by high-content fluorescence imaging, 10-point dose response", "key": {"[1]": {"system": "A375", "settings": "Homo sapiens, A-375, 72 h, cell count, 3 days", "summary_of_the_method": "(§1)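 Ten half-log concentrations from 100 μM (0.1% DMSO max) applied one day post-seeding, 3-day exposure at 37°C; untreated time-zero plate for GI50. Readout is nuclear cell count by automated fluorescence imaging, giving EC50, IC50, GI50 and 0–10 activity area.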"}, "[2]": {"system": "A431", "settings": "Homo sapiens, A-431, 72 h, cell count, 3 days", "summary_of_the_method": "as §1"}, "[3]": {"system": "DBTRG-05MG", "settings": "Homo sapiens, DBTRG-05MG, 72 h, cell count, 3 days", "summary_of_the_method": "as §1"}, "[4]": {"system": "DK-MG", "settings": "72 h, cell count, 3 days", "summary_of_the_method": "as §1"}, "[5]": {"system": "Daudi", "settings": "Homo sapiens, Daudi, 72 h, cell count, 3 days", "summary_of_the_method": "as §1"}, "[6]": {"system": "Jurkat", "settings": "Homo sapiens, Jurkat, 72 h, cell count, 3 days", "summary_of_the_method": "as §1"}, "[7]": {"system": "L-428", "settings": "Homo sapiens, L-428, 72 h, cell count, 3 days", "summary_of_the_method": "as §1"}, "[8]": {"system": "MHH-PREB-1", "settings": "Homo sapiens, MHH-PREB-1, 72 h, cell count, 3 days", "summary_of_the_method": "as §1"}, "[9]": {"system": "PANC-1", "settings": "Homo sapiens, PANC-1, 72 h, cell count, 3 days", "summary_of_the_method": "as §1"}, "[10]": {"system": "PFSK-1", "settings": "Homo sapiens, PFSK-1, 72 h, cell count, 3 days", "summary_of_the_method": "as §1"}, "[11]": {"system": "SW579", "settings": "SW579, 72 h, cell count, 3 days", "summary_of_the_method": "as §1"}, "[12]": {"system": "T24", "settings": "Homo sapiens, T-24, 72 h, cell count, 3 days", "summary_of_the_method": "as §1"}, "[13]": {"system": "TCCSUP", "settings": "Homo sapiens, TCC-SUP, 72 h, cell count, 3 days", "summary_of_the_method": "as §1"}, "[14]": {"system": "TT", "settings": "Homo sapiens, TT, 72 h, cell count, 3 days", "summary_of_the_method": "as §1"}, "[15]": {"settings": "50% of maximum possible response"}}}
{"smiles": "C[C@@H]1CC(=O)NN=C1c1ccc(NN=C(C#N)C#N)cc1", "note": "[levosimendan]", "values": [{"measurement": "IC50", "setting": "[1]; [15]", "result": 9.47, "unit": "µM"}, {"measurement": "GI50", "setting": "[1]; corrected for time zero", "result": 9, "unit": "µM"}, {"measurement": "EC50", "setting": "[1]; curve inflection point", "result": 9.47, "unit": "µM"}, {"measurement": "IC50", "setting": "[2]; [15]", "result": 44.9, "unit": "µM"}, {"measurement": "GI50", "setting": "[2]; corrected for time zero", "result": 42.8, "unit": "µM"}, {"measurement": "EC50", "setting": "[2]; curve inflection point", "result": 44.9, "unit": "µM"}, {"measurement": "IC50", "setting": "[3]; [15]", "result": 75.6, "unit": "µM"}, {"measurement": "GI50", "setting": "[3]; corrected for time zero", "result": 41.4, "unit": "µM"}, {"measurement": "EC50", "setting": "[3]; curve inflection point", "result": 75.6, "unit": "µM"}, {"measurement": "IC50", "setting": "[4]; [15]", "result": "> 100", "unit": "µM"}, {"measurement": "GI50", "setting": "[4]; corrected for time zero", "result": 49.4, "unit": "µM"}, {"measurement": "EC50", "setting": "[4]; curve inflection point", "result": "> 100", "unit": "µM"}, {"measurement": "IC50", "setting": "[5]; [15]", "result": 16.3, "unit": "µM"}, {"measurement": "GI50", "setting": "[5]; corrected for time zero", "result": 14.2, "unit": "µM"}, {"measurement": "EC50", "setting": "[5]; curve inflection point", "result": 15.3, "unit": "µM"}, {"measurement": "IC50", "setting": "[6]; [15]", "result": 22.1, "unit": "µM"}, {"measurement": "GI50", "setting": "[6]; corrected for time zero", "result": 18.2, "unit": "µM"}, {"measurement": "EC50", "setting": "[6]; curve inflection point", "result": 22.1, "unit": "µM"}, {"measurement": "IC50", "setting": "[7]; [15]", "result": 69.2, "unit": "µM"}, {"measurement": "GI50", "setting": "[7]; corrected for time zero", "result": 53.1, "unit": "µM"}, {"measurement": "EC50", "setting": "[7]; curve inflection point", "result": 69.2, "unit": "µM"}, {"measurement": "IC50", "setting": "[8]; [15]", "result": 7.64, "unit": "µM"}, {"measurement": "GI50", "setting": "[8]; corrected for time zero", "result": 7.08, "unit": "µM"}, {"measurement": "EC50", "setting": "[8]; curve inflection point", "result": 7.4, "unit": "µM"}, {"measurement": "IC50", "setting": "[9]; [15]", "result": 80.9, "unit": "µM"}, {"measurement": "GI50", "setting": "[9]; corrected for time zero", "result": 47, "unit": "µM"}, {"measurement": "EC50", "setting": "[9]; curve inflection point", "result": 80.9, "unit": "µM"}, {"measurement": "IC50", "setting": "[10]; [15]", "result": 19.6, "unit": "µM"}, {"measurement": "GI50", "setting": "[10]; corrected for time zero", "result": 13.9, "unit": "µM"}, {"measurement": "EC50", "setting": "[10]; curve inflection point", "result": 19.6, "unit": "µM"}, {"measurement": "IC50", "setting": "[11]; [15]", "result": 90.1, "unit": "µM"}, {"measurement": "GI50", "setting": "[11]; corrected for time zero", "result": 67.9, "unit": "µM"}, {"measurement": "EC50", "setting": "[11]; curve inflection point", "result": 90.1, "unit": "µM"}, {"measurement": "IC50", "setting": "[12]; [15]", "result": 6.95, "unit": "µM"}, {"measurement": "GI50", "setting": "[12]; corrected for time zero", "result": 6.6, "unit": "µM"}, {"measurement": "EC50", "setting": "[12]; curve inflection point", "result": 6.27, "unit": "µM"}, {"measurement": "IC50", "setting": "[13]; [15]", "result": "> 100", "unit": "µM"}, {"measurement": "GI50", "setting": "[13]; corrected for time zero", "result": 94.3, "unit": "µM"}, {"measurement": "EC50", "setting": "[13]; curve inflection point", "result": "> 100", "unit": "µM"}, {"measurement": "IC50", "setting": "[14]; [15]", "result": "> 100", "unit": "µM"}, {"measurement": "GI50", "setting": "[14]; corrected for time zero", "result": 14.3, "unit": "µM"}, {"measurement": "EC50", "setting": "[14]; curve inflection point", "result": "> 100", "unit": "µM"}]}
